Results taken from US20070049564A1 (Wyeth, priority 2005, published 2007).
In brackets after ≈: the same amount, converted by molar mass. Read-outs that look alike come from different tables or passages of the source.

Assays:
[1] = test system: E. coli GC 2231; test: MIC, broth microdilution; conditions: Escherichia coli, GC2231, E. coli GC 2231
[2] = test system: E. coli GC 2232; test: MIC, broth microdilution; conditions: Escherichia coli, GC2232, E. coli GC 2232
Experimental: Antimicrobial susceptibility testing. The in vitro activities of the antibiotics are determined by the broth microdilution method as recommended by the National Committee for Clinical Laboratory Standards (NCCLS) (1). Mueller-Hinton II broth (MHBII)(BBL Cockeysville, Md.) is the medium employed in the testing procedures. Microtiter plates containing serial dilutions of each antimicrobial agent are inoculated with each organism to yield the appropriate density (10^5 CFU/ml) in a 100 μl final volume. The plates are incubated for 18-22 hours at 35° C. in ambient air.
Representative compounds were first incubated in mouse serum for an hour prior to the in vitro testing against a panel of selected gram-positive and gram-negative bacteria strains. All compounds were also pre-incubated in water for an hour prior to testing as control. Representative compounds of Formula I were incubated in human serum prior to MIC determination.

[3] = test system: E. coli GC 2234; test: MIC, broth microdilution; conditions: Escherichia coli, GC2234, E. coli GC 2234
[4] = test system: E. coli GC 2272; test: MIC, broth microdilution; conditions: Escherichia coli, GC2272, E. coli GC 2272
[5] = test system: E. coli GC 3226; test: MIC, broth microdilution; conditions: Escherichia coli, GC3226, E. coli GC 3226
[6] = test system: S. typhimurium GC 2172; test: MIC, broth microdilution; conditions: Salmonella enterica, TYPHIMURIUM, S. typhimurium GC 2172
[7] = test system: S. aureus GC 1131; test: MIC, broth microdilution; conditions: Staphylococcus aureus, GC1131, S. aureus GC 1131
[8] = test system: S. aureus GC 6466; test: MIC, broth microdilution; conditions: Staphylococcus aureus, GC6466, S. aureus GC 6466
[9] = test system: S. aureus GC 1079; test: MIC, broth microdilution; conditions: Staphylococcus aureus, GC1079, S. aureus GC 1079
[10] = test system: S. aureus GC 2216; test: MIC, broth microdilution; conditions: Staphylococcus aureus, GC2216, S. aureus GC 2216
[11] = test system: S. aureus GC 6335; test: MIC, broth microdilution; conditions: Staphylococcus aureus, GC6335, S. aureus GC 6335
[12] = test system: S. epidermidis GC 4935; test: MIC, broth microdilution; conditions: Staphylococcus epidermidis, GC4935, S. epidermidis GC 4935
[13] = test system: E. faecalis GC 2267; test: MIC, broth microdilution; conditions: Enterococcus faecalis, GC2267, E. faecalis GC 2267
[14] = test system: E. faecium GC 4556; test: MIC, broth microdilution; conditions: Enterococcus faecium, GC4556, E. faecium GC 4556
[15] = test system: E. faecium GC 2243; test: MIC, broth microdilution; conditions: Enterococcus faecium, GC2243, E. faecium GC 2243
[16] = test system: S. pneumoniae* GC 4465; test: MIC, broth microdilution; conditions: Streptococcus pneumoniae, S. pneumoniae* GC 4465
[17] = test system: S. pneumoniae+ GC 4465; test: MIC, broth microdilution; conditions: Streptococcus pneumoniae, S. pneumoniae+ GC 4465
[18] = test system: S. pyogenes GC 4563; test: MIC, broth microdilution; conditions: Streptococcus pyogenes, GC4563, S. pyogenes GC 4563
[19] = test system: c. albicans GC 3066; test: MIC, broth microdilution
[20] = test system: Staph. aureus Smith; test: In vivo activity (oral, iv; ED50) against Staph. aureus Smith in mice
Experimental: Representative examples of compounds of Formula I were tested for the oral efficacy using S. aureus Smith in mice.

CCCN(CC(=O)Nc1cc(N(C)C)c2c(c1O)C(=O)C1=C(O)[C@]3(O)C(=O)C(C(N)=O)=C(O)[C@@H](N(C)C)[C@@H]3C[C@@H]1C2)C(=O)OCC(C)C [Example 16, isobutyl 2-{[(5aR,6aS,7S,10aS)-9-(aminocarbonyl)-4,7-bis(dimethylamino)-1,8,10a,11-tetrahydroxy-10,12-dioxo-5,5a,6,6a,7,10,10a,12-octahydrotetracen-2-yl]amino}-2-oxoethyl(propyl)carbamate]
MIC ([1]; Mouse Serum pre-incubation): > 64 µg/mL
MIC ([1]; Water pre-incubation): > 64 µg/mL
MIC ([2]; Mouse Serum pre-incubation): > 64 µg/mL
MIC ([2]; Water pre-incubation): > 64 µg/mL
MIC ([3]; Mouse Serum pre-incubation): > 64 µg/mL
MIC ([3]; Water pre-incubation): > 64 µg/mL
MIC ([4]; Mouse Serum pre-incubation): > 64 µg/mL
MIC ([4]; Water pre-incubation): > 64 µg/mL
MIC ([5]; Mouse Serum pre-incubation): 64 µg/mL (≈ 95.3 µM)
MIC ([5]; Water pre-incubation): > 64 µg/mL
MIC ([6]; Mouse Serum pre-incubation): > 64 µg/mL
MIC ([6]; Water pre-incubation): > 64 µg/mL
MIC ([7]; Mouse Serum pre-incubation): 2 µg/mL (≈ 2.98 µM)
MIC ([7]; Water pre-incubation): 4 µg/mL (≈ 5.95 µM)
MIC ([8]; Mouse Serum pre-incubation): 4 µg/mL (≈ 5.95 µM)
MIC ([8]; Water pre-incubation): 8 µg/mL (≈ 11.9 µM)
MIC ([9]; Mouse Serum pre-incubation): 2 µg/mL (≈ 2.98 µM)
MIC ([9]; Water pre-incubation): 4 µg/mL (≈ 5.95 µM)
MIC ([10]; Mouse Serum pre-incubation): 2 µg/mL (≈ 2.98 µM)
MIC ([10]; Water pre-incubation): 4 µg/mL (≈ 5.95 µM)
MIC ([11]; Mouse Serum pre-incubation): 4 µg/mL (≈ 5.95 µM)
MIC ([11]; Water pre-incubation): 4 µg/mL (≈ 5.95 µM)
MIC ([12]; Mouse Serum pre-incubation): 8 µg/mL (≈ 11.9 µM)
MIC ([12]; Water pre-incubation): 8 µg/mL (≈ 11.9 µM)
MIC ([13]; Mouse Serum pre-incubation): 4 µg/mL (≈ 5.95 µM)
MIC ([13]; Water pre-incubation): 8 µg/mL (≈ 11.9 µM)
MIC ([14]; Mouse Serum pre-incubation): 4 µg/mL (≈ 5.95 µM)
MIC ([14]; Water pre-incubation): 8 µg/mL (≈ 11.9 µM)
MIC ([15]; Mouse Serum pre-incubation): 4 µg/mL (≈ 5.95 µM)
MIC ([15]; Water pre-incubation): 8 µg/mL (≈ 11.9 µM)
MIC ([16]; Mouse Serum pre-incubation): 4 µg/mL (≈ 5.95 µM)
MIC ([16]; Water pre-incubation): 4 µg/mL (≈ 5.95 µM)
MIC ([17]; Mouse Serum pre-incubation): 8 µg/mL (≈ 11.9 µM)
MIC ([17]; Water pre-incubation): 8 µg/mL (≈ 11.9 µM)
MIC ([18]; Mouse Serum pre-incubation): 4 µg/mL (≈ 5.95 µM)
MIC ([18]; Water pre-incubation): 8 µg/mL (≈ 11.9 µM)
MIC ([19]; Candida albicans, GC3066): > 64 µg/mL
MIC ([19]; c. albicans GC 3066, Water pre-incubation): >64 UG/ML
ED50 ([20]; Staphylococcus aureus, in Mus musculus, po, read-out: ED50 Staph Smith SOD): > 32 mg/kg
ED50 ([20]; iv, read-out: ED50 Staph Smith SIV): > 2 mg/kg
